Patent US20140179664A1, “Heterocyclyl Pyrimidine Analogues As JAK Inhibitors” (Cellzome Limited, priority 2011, published 2014)

System: STAT5 phosphorylation downstream of JAK3 in human YT cells
Assay: pSTAT5 cell assay (IL-2 stimulated YT cells, AlphaScreen)
Assay type: cell-based
Settings: IL-2 stimulation, read-out: Inhibition values (IC50) pSTAT5
Excerpt: STAT5 phosphorylation represents one of the proximal events in the signalling cascade downstream of JAK3 activation. Therefore STAT5 phosphorylation is an appropriate readout to assess the mechanistic effect of JAK3 inhibition. Stimulation of human YT cells, an NK-like cell line, with interleukin-2 (IL-2) results in phosphorylation of STAT5 at tyrosine residue 694 (Tyr694) that can be quantitatively measured by immunodetection with specific antibodies and an appropriate detection method, in this case AlphaScreen assay technology.
Human YT cells were grown in RPMI medium (Lonza, BE12-167) with 2 mM L-Glutamine (Invitrogen, 25030-024) and 10% heat-inactivated FBS (Invitrogen, 10106-169) and kept in a humidified incubator (37° C., 5% CO2). Cells were harvested by centrifugation, washed once with HBSS (Invitrogen, 14180-046), resuspended in HBSS at 1.5×10^6 cells/ml and 0.9×10^4 cells were seeded in 6 μl per well in a 96 well White plate (PerkinElmer, 6005569).
Test compounds were dissolved in DMSO and a 1:3 dilution series (9 steps) was prepared. To generate a dose response curve, 3 μl of fourfold concentrated compound in 4% DMSO/HBSS were added to each cell sample in the 96 well plate resulting in a final DMSO concentration of 1% DMSO. Cells were incubated for one hour in a humidified incubator (37° C., 5% CO2). To each well 3 μl of a fourfold concentrated IL-2 solution (Recombinant human IL-2, Peprotech 200-02; 120 nM solution in HBSS) was added and incubated for 30 minutes at room temperature. Cells were lysed by adding 3 μl of 5× lysis buffer (SureFire lysis buffer; Perkin Elmer, TGRS5S10K) and incubated for 10 minutes at room temperature with gentle shaking
For signal detection by AlphaScreen® technology the SureFire phospho-STAT5 (Tyr694/Tyr699) kit was used according to instructions provided by the manufacturer (Perkin Elmer, TGRS5S10K). Acceptor beads were added as recommended by the manufacturer (Reactivation buffer/Activation buffer/Acceptor beads at a ratio of 40:10:1) and incubated at room temperature for 1.5 hours with gentle shaking Then donor beads were added as recommended (Dilution buffer/Donor beads at a ratio of 20:1) and incubated at room temperature for 1.5 hours with gentle shaking Plates were read on an Envision instrument (Perkin Elmer) with the AlphaScreen protocol. Data were analysed in BioAssay using the nonlinear regression for a sigmoidal dose-response with a variable slope.

| IC50 [nM] | Structure (SMILES) |
| --- | --- |
| 250 to 1000 | CNC(=O)Cn1cc(Nc2ncc(Cl)c(N[C@H](CO)c3ccccc3)n2)cn1 [Compound 23, (S)-2-(4-((5-chloro-4-((2-hydroxy-1-phenylethyl)amino)pyrimidin-2-yl)amino)-1H-pyrazol-1-yl)-N-methylacetamide] |
| 250 to 1000 | CN(C)C(=O)Cn1cc(Nc2ncc(Cl)c(N[C@H](CO)c3ccccc3)n2)cn1 [Compound 30] |
| 250 to 1000 | CC(C)NC(=O)Cn1cc(Nc2ncc(Cl)c(N[C@H](CO)c3ccccc3)n2)cn1 [Compound 67] |
| 250 to 1000 | O=C(Cn1cc(Nc2ncc(Cl)c(N[C@H](CO)c3ccccc3)n2)cn1)NC1CC1 [Compound 68] |
| 250 to 1000 | OC[C@@H](Nc1nc(Nc2cn[nH]c2)ncc1Cl)c1ccccc1 [Compound 75] |
| < 250 | NC(=O)Cn1cc(Nc2ncc(Cl)c(N[C@H](CO)c3ccccc3F)n2)cn1 [Compound 78] |
